Measurements from patent publication US9850287B2, “Means and methods for breaking noncovalent binding interactions between molecules” (Het Nederlands Kanker Instituut, priority 2005, dated 2017).

Experiments:
HLA-A2.1 = molecular target: T1, HLA-A2.1 (Homo sapiens, UniProt P04439, D140Y/D185E/D98H/E176V/E277Q/G131W/G231S/I119V/I121R/I166T/I218V/N151K/N90K/P208A/P217A/Q86G/Q94H/R138H/R169H); type: binding
T1 construct: made in house

[1] = system: CD8+ lymphocytes in peripheral blood mononuclear cells of a CMV-positive donor; type: cell-based

Substance: HY 311-319: HLA-A2.1-binding peptide (FIDSYICQV)
- recovery of UV-sensitive MHC multimer upon addition of peptide (HLA-A2.1): highly increased recovery
- staining of CD8+ T-cells by exchange-generated MHC tetramers [1]: do not show measurable binding

Substance: MART I 26-35 (A2L mutant)
- staining of CD8+ T-cells by exchange-generated MHC tetramers [1]: do not show measurable binding

Substance: CMV pp65 495-503: CMV pp65 495-503 epitope peptide (NLVPMVATV; UniProt P06725 495-503, looked up, fragment)
- staining of CD8+ T-cells by exchange-generated MHC tetramers [1]: detect CMV-specific T-cells at an equal frequency and with similar intensity as conventional CMV pp65 495-503-specific MHC tetramers

Substance: GP100 (614-622): HLA-A3-binding peptide, control not expected to interact with HLA-A2.1 (LIYRRRLMK)
- recovery of UV-sensitive MHC multimer upon addition of peptide (HLA-A2.1): does not lead to a substantial increase in the recovery
